We go through five compounds from patent US10912814B2, “Combination formulation of three antiviral compounds” (priority 2016, dated 2021).

In general, bioavailability refers to dose-corrected exposure relative to a reference, in per cent. By solubility is commonly meant the concentration that dissolves in the medium under given conditions.

Series [1] can be described thus: Velpatasvir single and multiple oral dose pharmacokinetics. The format is in vivo, human. The conditions noted are these: for concentration at 24 h: human, plasma, oral, 5 mg, mean. Here is the method: Following single and multiple oral doses of velpatasvir, maximum plasma concentrations occurred between 1.50 and 3.25 hours (median tmax).
The nature of series [2]: Photostability (light exposure, ICH Q1B). The class given is physicochemical. Here is the method: In some embodiments, and the Examples presented herein, the tablet formulation includes sofosbuvir having Form 6 and, optionally, a trace amount of Form 7.
Tablet cores and film-coated tablets were evaluated per ICH Q1B guidelines with a total of illumination of more than 1.2 million-lux hours and a total irradiance of more than 200 W·hr/m^2.

The nature of series [3]: Storage stability: appearance, assay/label strength (LS), total impurities/degradation products. The class given is physicochemical. The conditions noted are these: for physical and chemical stability: open container, 1 month at 40° C./75% RH. Here is the method:
In some embodiments, the film-coated tablets were packaged in 75 and 100 mL white HDPE bottles (Lots A and B, respectively, as described in Tables 11A, 11B) with 1 g silica gel desiccant canisters and a polyester fiber coil. The 75 and 100 mL HDPE bottles contained fourteen and twenty eight tablets, respectively. Each HDPE bottle was capped using a white, continuous thread, child-resistant polypropylene screw cap with an […], aluminum-faced line. The packaged tablets (14 and 28 counts) were evaluated for stability at 40° C./75% RH and 25° C./60% RH. Additionally, the 14-count bottles (without cap) were evaluated for stability under open conditions at 40° C./75% RH.
For each of the impact studies, the sofosbuvir/velpatasvir SSD/voxilaprevir SSD tablets were packaged in a designated commercial packaging configuration (28-count, 100 mL HPDE bottle, coil, 1 g desiccant), and stored for 12 weeks at 25° C./60% RH and 40° C./75% RH. Tablets were also packaged in open containers (28-count, 100 mL HPDE bottle without cap) and stored for 4 weeks at 40° C./75% RH and for 1 week at 50° C./92% RH.
The sofosbuvir/velpatasvir SSD/voxilaprevir SSD tablets were packaged in the designated commercial packaging configuration (28-count, 100 mL HPDE bottle, coil, 1 g desiccant), and stored for 6 months at 25° C./60% RH and 40° C./75% RH.

Series [4] in a line: Tablet dissolution as a function of medium pH and composition (Apparatus II, 75 rpm, 900 mL, 37° C.). The class given is physicochemical. The note with it: Formulation G tablets.
The next series can be described thus: BCS classification. The format is physicochemical.
Series [5] can be described thus: Tablet dissolution in 50 mM sodium acetate buffer pH 5.0 with 2.0% w/v Polysorbate 80 and 0.001% w/v BHT, 75 rpm, 900 mL, 37° C., USP Type II. The format is physicochemical. The note with it: for dissolution at 30 minutes: after 4 weeks open at 40° C./75% RH.
A short description of series [6]: Oral bioavailability of crystalline voxilaprevir forms in a dog model. The note with it: in vivo, read-out: oral bioavailability, less than that of crystalline Form VI. Here is the method: (§1) As described previously, Form VIII of voxilaprevir is characterized by an X-ray powder diffractogram comprising the following peaks (±0.2°): at 7.8, 8.2, and 20.2°2θ, as determined on a diffractometer using Cu-Kα radiation.

A short description of series [7]: Solubility (aqueous, spray-drying solvents). The format is physicochemical.
Text: (§2) In some embodiments, and the Examples presented herein, the tablet formulation includes sofosbuvir having Form 6 and, optionally, a trace amount of Form 7. […] Form 6 of sofosbuvir is the thermodynamically stable form and remains physically stable when suspended in water. Form 7 of Sofosbuvir, while physically stable in water for short periods of time, can be converted to Form 6 with prolonged stirring.
as §1
The selection of a suitable solvent for the spray drying process was based on (1) the solubility of voxilaprevir EAS, Form II and copovidone in the solvent, (2) the chemical stability of voxilaprevir EAS, Form II in the presence of the solvent, and (3) the impact of the solvent on feed solution properties and particle properties of the resulting solid dispersion. Acetone and dichloromethane were evaluated as solvents for the feed solution because of their low boiling points and the high solubility of voxilaprevir EAS, Form II (>300 mg/mL) in these solvents.

Another series can be described thus: Hygroscopicity. The format is physicochemical.
Text: as §2
Voxilaprevir SSD is hygroscopic, with a reversible weight gain of 11% when cycled between 0% and 90% RH at 25° C.

Like-named read-outs stand apart in the source and are kept apart here.

For the compound `COC[C@H]1C[C@@H](c2ncc(-c3ccc4c(c3)COc3cc5c(ccc6nc([C@@H]7CC[C@H](C)N7C(=O)[C@@H](NC(=O)OC)C(C)C)[nH]c65)cc3-4)[nH]2)N(C(=O)[C@H](NC(=O)OC)c2ccccc2)C1` [Velpatasvir, methyl {(2S)-1-[(2S,5S)-2-(9-{2-[(2S,4S)-1-{(2R)-2-[(methoxycarbonyl)amino]-2-phenylacetyl}-4-(methoxymethyl)pyrrolidin-2-yl]-1H-imidazol-5-yl}-1,11-dihydroisochromeno[4′,3′:6,7]naphtho[1,2-d]imidazol-2-yl)-5-methylpyrrolidin-1-yl]-3-methyl-1-oxobutan-2-yl}carbamate], the “dose linearity of PK” value in [1] (dose range of 5 to 450 mg) is on record as “nonlinear PK”. The concentration at 24 h in [1] (multiple dose 5 mg, read-out: Ctau) was found to be 2.2 ng/mL; in series [1] (single dose 5 mg, read-out: Clast) it was 1.4 ng/mL. Also, in [2] (tablets film-coated to weight gains of 2.1 to 5.4%, ICH Q1B), the “level of degradation products” value is given as 0.4%. In series [2] (uncoated tablet cores (Formulation G), ICH Q1B), the “loss after exposure to light” value is listed as “up to 0.3%”. Also, the total impurities/degradation products in series [3] (packaged Formulation G tablets (Tables 11A, 11B), 40° C./75% RH and 25° C./60% RH for 6 months) amounted to 0.0%; in [3] (tablet Lots A-D from sub-potent/super-potent VEL SSD and VOX SSD, all conditions), 0.0%; in [3] (tablets from SSDs made with high-peroxide copovidone (544 ppm VEL SSD, 655 ppm VOX SSD)), 0.0%; in series [3] (tablets from VEL SSD with 6.0% residual ethanol and VOX SSD with 2.1% residual acetone, all conditions), 0.0%; in [3] (tablets from VEL SSD with 7.0% and VOX SSD with 3.2% water content, all conditions), 0.0%. Moreover, in [4], the “dissolution at 60 minutes in pH 4.0 and 5.0 containing 2.0% w/v polysorbate 80” value is on record as “complete dissolution”. Moreover, in [4], the “dissolution in pH 2.0, 4.5 and 6.8 buffers, FaSSIF and FeSSIF” value is on record as “Incomplete dissolution”. Also, in the series “BCS classification”, the “aqueous solubility, pH dependence” value is given as “pH-dependent solubility”. Also, the entries for the “dissolution at 30 minutes” value in [5] (SSD potency tablets Lot A) and in series [5] (SSD potency tablets Lot B) were 86% and 91%, respectively. For the same compound, the entries for the “release at 30 minutes” value in series [5] (tablets containing neat amorphous velpatasvir free base (physical mixture with copovidone)) and in series [5] (tablets containing velpatasvir SSD) were 62% and 91%, respectively.

As for `CC[C@@H]1[C@@H]2CN(C(=O)[C@H](C(C)(C)C)NC(=O)O[C@@H]3C[C@H]3CCCCC(F)(F)c3nc4ccc(OC)cc4nc3O2)[C@@H]1C(=O)N[C@]1(C(=O)NS(=O)(=O)C2(C)CC2)C[C@H]1C(F)F` [crystalline Form VIII], the bioavailability in series [6] was approximately 50%.

`CC(C)OC(=O)[C@@H](C)N[P@](=O)(OC[C@H]1O[C@@H](n2ccc(=O)[nH]c2=O)[C@](C)(F)[C@@H]1O)Oc1ccccc1` [sofosbuvir Form 6]: the solubility in series [7] (water, 37° C., read-out: aqueous solubility) was not below 2 mg/mL. In addition, in “Hygroscopicity”, the hygroscopicity entry is “non-hygroscopic”. Also, the photosensitivity result in series [2] is given as “not photosensitive”. Besides, the “physical and chemical stability” value in series [3] was “physically and chemically stable”.

With `CC(C)OC(=O)[C@@H](C)N[P@](=O)(OC[C@H]1O[C@@H](n2ccc(=O)[nH]c2=O)[C@](C)(F)[C@@H]1O)Oc1ccccc1` [sofosbuvir Form 7], the hygroscopicity result in “Hygroscopicity” was “non-hygroscopic”. In addition, the photosensitivity entry in [2] is given as “not photosensitive”. For the same compound, the “physical and chemical stability” value in series [3] was “physically and chemically stable”.

For the compound `CC[C@@H]1[C@@H]2CN(C(=O)[C@H](C(C)(C)C)NC(=O)O[C@@H]3C[C@H]3CCCCC(F)(F)c3nc4ccc(OC)cc4nc3O2)[C@@H]1C(=O)N[C@]1(C(=O)NS(=O)(=O)C2(C)CC2)C[C@H]1C(F)F` [voxilaprevir EAS, Form II], the solubility in [7] (acetone and dichloromethane, organic solvent or mixture, read-out: solubility in acetone and dichloromethane) is more than 300 mg/mL.
